In experiment [1] the target is GSK3α (GST-full length GSK3α) (Homo sapiens (Human), UniProt P49840). The experiment in a line: GSK3α TR-FRET kinase assay. It is filed as biochemical. The procedure, abridged:
(§1)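 Compound was preincubated 30 min with 1 nM GST-GSK3 enzyme. Reaction ran 100 min at ambient temperature in Tris pH 7.5/MgCl2 with 200 nM biotinylated pS645-glycogen synthase 631-650 peptide and ATP (4 μM GSK3α, 2 μM GSK3b, or 1 mM). The EDTA-stopped reaction was read by TR-FRET (Tb-anti-pSer641/streptavidin-d2), and IC50s were fitted.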
(In general: TR-FRET usually uses a lanthanide donor and a delayed reading to cut background.)

Experiment [2] deals with GSK3b (GST-full length GSK3b) (Homo sapiens (Human), UniProt P49841). The experiment in a line: GSK3b TR-FRET kinase assay. It is filed as biochemical. The procedure, abridged: as §1
The mark [3] stands for this setting: 1 nM GSK3α, 4 μM ATP, 30 minute preincubation, geometric mean, read-out: GSK3-A TR-FRET BIOCHEMICAL (TR-FRET), GMean, IC50.
Where [4] appears, read: 1 nM GSK3b, 2 μM ATP, 30 minute preincubation, geometric mean, read-out: GSK3-B TR-FRET BIOCHEMICAL (TR-FRET), GMean, IC50.
The mark [5] stands for this setting: 1 nM GSK3α, 4 μM ATP, 30 minute preincubation, Table 16, read-out: GSK3-A TR-FRET BIOCHEMICAL (TR-FRET), IC50.
Setting [6] is: 1 nM GSK3b, 2 μM ATP, 30 minute preincubation, Table 16, read-out: GSK3-B TR-FRET BIOCHEMICAL (TR-FRET), IC50.
Setting [7] is: 1 nM GSK3α, 4 μM ATP, 30 minute preincubation, Table 16, read-out: GSK3-A TR-FRET BIOCHEMICAL (TR-FRET).
Setting [8] is: 1 nM GSK3b, 2 μM ATP, 30 minute preincubation, Table 16, read-out: GSK3-B TR-FRET BIOCHEMICAL (TR-FRET).
Setting [9] is: 1 nM GSK3α, 4 μM ATP, 30 minute preincubation, read-out: GSK3-A TR-FRET BIOCHEMICAL (TR-FRET), IC50.
Where [10] appears, read: 1 nM GSK3b, 2 μM ATP, 30 minute preincubation, read-out: GSK3-B TR-FRET BIOCHEMICAL (TR-FRET), IC50.
The mark [11] stands for this setting: GSK3-A (TR-FRET 1 mM ATP), GMean, IC50, 1 mM ATP, geometric mean.
The mark [12] stands for this setting: GSK3-B (TR-FRET 1 mM ATP), GMean, IC50, 1 mM ATP, geometric mean.

Read-outs that look alike come from different tables or passages of the source. A value given as a limit tells only on which side of the number the result lay.

Sequence of GSK3α (GST-full length GSK3α) (P49840 whole entry): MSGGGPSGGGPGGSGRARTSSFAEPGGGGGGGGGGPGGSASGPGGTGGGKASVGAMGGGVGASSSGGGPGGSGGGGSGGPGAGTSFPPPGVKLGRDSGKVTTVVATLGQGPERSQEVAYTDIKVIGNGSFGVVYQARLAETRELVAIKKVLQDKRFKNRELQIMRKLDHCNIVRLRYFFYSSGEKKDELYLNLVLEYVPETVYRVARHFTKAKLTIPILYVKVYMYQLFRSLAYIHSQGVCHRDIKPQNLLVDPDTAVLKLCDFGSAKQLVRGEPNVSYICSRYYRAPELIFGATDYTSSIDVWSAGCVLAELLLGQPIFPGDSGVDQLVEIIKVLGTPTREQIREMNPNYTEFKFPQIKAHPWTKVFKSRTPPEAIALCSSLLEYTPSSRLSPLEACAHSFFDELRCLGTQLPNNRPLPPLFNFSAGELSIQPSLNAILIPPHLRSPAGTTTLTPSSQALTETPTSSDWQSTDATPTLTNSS
Sequence of GSK3b (GST-full length GSK3b) (P49841 whole entry): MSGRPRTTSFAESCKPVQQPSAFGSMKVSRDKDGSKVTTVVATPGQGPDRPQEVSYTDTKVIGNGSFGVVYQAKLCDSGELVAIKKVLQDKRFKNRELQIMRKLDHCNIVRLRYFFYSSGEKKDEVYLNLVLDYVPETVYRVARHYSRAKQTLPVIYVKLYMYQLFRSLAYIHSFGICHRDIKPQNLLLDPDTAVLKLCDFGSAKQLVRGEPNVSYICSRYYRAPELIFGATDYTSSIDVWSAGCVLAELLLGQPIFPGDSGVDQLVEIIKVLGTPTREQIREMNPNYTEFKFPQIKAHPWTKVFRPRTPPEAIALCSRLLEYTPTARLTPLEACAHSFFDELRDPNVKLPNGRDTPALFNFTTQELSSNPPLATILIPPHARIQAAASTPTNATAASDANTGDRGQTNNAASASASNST

Turning to `CC[C@]1(c2cccc(-c3c(F)cncc3Cl)c2)C2=C(CC(C)(C)NC2=O)Nc2n[nH]cc21` [Compound 948371], the IC50 in experiment [1] (setting [3]) was ≤ 100 nM; in experiment [1] (read-out: GSK3-A (TR-FRET 1 mM ATP), GMean, IC50, 1 mM ATP, geometric mean), 100 to 1000 nM; in experiment [2] (setting [4]), ≤ 100 nM; in experiment [2] (read-out: GSK3-B (TR-FRET 1 mM ATP), GMean, IC50, 1 mM ATP, geometric mean) it was 100 to 1000 nM.

Regarding `CCC1(c2cccc(-c3c(C)cnc4ccccc34)c2)C2=C(CC(C)(C)NC2=O)Nc2n[nH]cc21` (centres unmarked) [Compound 950825], the IC50 in experiment [1] (setting [5]) and in experiment [2] (setting [6]) was > 5000 nM in each case.

As for `CCC1(c2cccc(-c3ccnn3C)c2)C2=C(CC3(CCC3)NC2=O)Nc2n[nH]cc21` (centres unmarked) [Compound 948522], the values for the IC50 in experiment [1] (setting [3]) and in experiment [2] (setting [4]) were 100 to 1000 nM and > 5000 nM, respectively.

On to `Cn1ccc(S(=O)(=O)N2CCC3(CC2)C2=C(Nc4n[nH]cc43)[C@@H](F)C(C)(C)CC2=O)n1` [Compound 951708], for which the IC50 is ≤ 100 nM in experiment [1] (setting [7]) and 100 to 1000 nM in experiment [2] (setting [8]).

As to `CCC1(c2cccc(-c3ccnc(C)c3C)c2)C2=C(CC(C)(C)CC2=O)Nc2n[nH]c(C(F)(F)F)c21` (centres unmarked) [Compound 947328], the IC50 in experiment [1] (setting [7]) and in experiment [2] (setting [8]) was 100 to 1000 nM in each case.

Regarding `CC1(C)CC(=O)C2=C(C1)Nc1n[nH]cc1C21COC2(CN(C(=O)C3CCC(F)CC3)C2)C1` (centres unmarked) [Compound 947267], the IC50 in experiment [1] (setting [9]) was ≤ 100 nM; in experiment [2] (setting [10]) it was 100 to 1000 nM.

Turning to `CCC1(c2cccc(N(C(C)=O)C3CCCC3)c2)C2=C(CC(C)(C)CC2=O)Nc2n[nH]cc21` (centres unmarked) [Compound 912069], the IC50 in experiment [1] (setting [5]) and in experiment [2] (setting [6]) was ≤ 100 nM each time.

In the case of `CC[C@]1(c2cccc(-c3cc(C)ncc3F)c2)C2=C(CC(C)(C)NC2=O)Nc2n[nH]cc21` [Compound 947822], the IC50 was 100 to 1000 nM in experiment [1] (setting [3]) and > 5000 nM in experiment [2] (setting [4]).

Regarding `CCC1(c2cccc(-c3cc(OC)nc4ccccc34)c2)C2=C(CC(C)(C)NC2=O)Nc2n[nH]cc21` (centres unmarked) [Compound 949116], the IC50 in experiment [1] (setting [3]) and in experiment [2] (setting [4]) was > 5000 nM each time.

`CCC1(c2cccc(N3CCCCC3)c2)C2=C(CC(C)(C)CC2=O)Nc2n[nH]c(C(F)(F)F)c21` (centres unmarked) [Compound 816799]: the values for the IC50 in experiment [1] (setting [3]) and in experiment [2] (setting [4]) were 100 to 1000 nM and 1000 to 5000 nM, respectively.

`CC[C@@]1(c2cccc(-c3ccnc(N(C)C)c3)c2)C2=C(CC(C)(C)CC2=O)Nc2n[nH]c(C)c21` [Compound 913021]: the IC50 in experiment [1] (setting [5]) and in experiment [2] (setting [6]) was ≤ 100 nM throughout.

`CC[C@]1(c2cccc(C(C)C)c2)C2=C(CC(C)(C)NC2=O)Nc2n[nH]cc21` [Compound 949752]: the IC50 in experiment [1] (setting [5]) and in experiment [2] (setting [6]) was > 5000 nM throughout.

As to `CC[C@]1(c2cccc(C(F)(F)F)c2)C2=C(CCN(c3cnc(OC)nc3)C2=O)Nc2n[nH]cc21` [Compound 949127], the IC50 in experiment [1] (setting [3]) was 1000 to 5000 nM; in experiment [2] (setting [4]) it was > 5000 nM.

Consider `CC1(C)CC(=O)C2=C(Nc3n[nH]cc3C23CCN(S(=O)(=O)c2cccc(C(F)(F)F)c2)CC3)[C@@H]1F` [Compound 951703], for which the IC50 in experiment [1] (setting [7]) was ≤ 100 nM; in experiment [1] (setting [11]), 100 to 1000 nM; in experiment [2] (setting [8]), ≤ 100 nM; in experiment [2] (setting [12]), 1000 to 5000 nM.

`CC1(C)CC(=O)C2=C(C1)Nc1n[nH]cc1C21COC2(CN(S(=O)(=O)c3ccccc3)C2)C1` (centres unmarked) [Compound 913002]: the IC50 was in the range of 100 to 1000 nM in experiment [1] (setting [9]) and 1000 to 5000 nM in experiment [2] (setting [10]).

Regarding `CC1(C)CC(=O)C2=C(C1)Nc1n[nH]cc1[C@]21CC[C@@H](c2ccncc2)CC1` [Compound 949320], the IC50 in experiment [1] (setting [7]) was 100 to 1000 nM; in experiment [2] (setting [8]), 1000 to 5000 nM.

For the compound `CC1(C)CC(=O)C2=C(C1)Nc1n[nH]cc1C2(C)C` [Compound 786065], the results for the IC50 in experiment [1] (setting [5]) and in experiment [2] (setting [6]) were 1000 to 5000 nM and > 1670 nM, respectively.

Take `CCC1(c2cccc(-c3cn(C)nc3C)c2)C2=C(CC(C)(C)CC2=O)Nc2n[nH]c(C)c21` (centres unmarked) [Compound 884003]: the IC50 in experiment [1] (setting [5]) and in experiment [2] (setting [6]) was ≤ 100 nM throughout.

Turning to `CCC1(c2cccc(S(=O)(=O)C(C)C)c2)C2=C(CC(C)(C)CC2=O)Nc2n[nH]cc21` (centres unmarked) [Compound 912169], the IC50 in experiment [1] (setting [5]) and in experiment [2] (setting [6]) was ≤ 100 nM throughout.

As for `CC[C@@]1(c2cccc(OC(C)C)c2)C2=C(CC(C)(C)CC2=O)Nc2n[nH]cc21` [Compound 811563], the IC50 is 1000 to 5000 nM in experiment [1] (setting [3]) and > 5000 nM in experiment [2] (setting [4]).

As for `CC[C@@]1(c2cccc(S(=O)(=O)CC3CC3)c2)C2=C(CC(C)(C)NC2=O)Nc2n[nH]c(C(F)(F)F)c21` [Compound 949186], the IC50 in experiment [1] (setting [5]) and in experiment [2] (setting [6]) was 100 to 1000 nM throughout.

For `CC1(C)CC(=O)C2=C(C1)Nc1n[nH]cc1C21COC2(CN(C(=O)C3(F)CCC3)C2)C1` (centres unmarked) [Compound 947279], the IC50 in experiment [1] (setting [9]) and in experiment [2] (setting [10]) was ≤ 100 nM throughout.

Regarding `CCN(c1cccc(C2(CC)C3=C(CC(C)(C)CC3=O)Nc3n[nH]cc32)c1)c1cccnc1C` (centres unmarked) [Compound 885367], the IC50 in experiment [1] (setting [5]) was in the range of 100 to 1000 nM; in experiment [2] (setting [6]), 1000 to 5000 nM.

For the compound `CCC1(c2cccc(Nc3ncccn3)c2)C2=C(CC(C)(C)CC2=O)Nc2n[nH]cc21` (centres unmarked) [Compound 945943], the IC50 in experiment [1] (setting [7]) is ≤ 100 nM; in experiment [2] (setting [8]), 100 to 1000 nM.

Consider `Cc1[nH]nc2c1C1(CCCCC1)C1=C(CC(C)(C)CC1=O)N2` [Compound 883865], for which the IC50 is ≤ 100 nM in experiment [1] (setting [7]) and 100 to 1000 nM in experiment [2] (setting [8]).

Take `CC[C@]1(c2cccc(OCC(F)F)c2)C2=C(CC(C)(C)CC2=O)Nc2n[nH]cc21` [Compound 949113]: the IC50 is 1000 to 5000 nM in experiment [1] (setting [7]) and > 5000 nM in experiment [2] (setting [8]).

On to `CC1(C)CC(=O)C2=C(C1)Nc1n[nH]cc1C21CCCCC1=O` (centres unmarked) [Compound 912105], for which the IC50 in experiment [1] (setting [5]) and in experiment [2] (setting [6]) was > 5000 nM in each case.

As to `COc1cccc(S(=O)(=O)N2CCC3(CC2)C2=C(CC(C)(C)CC2=O)Nc2n[nH]cc23)c1` [Compound 901468], the IC50 in experiment [1] (setting [7]) was ≤ 100 nM; in experiment [1] (setting [11]), 100 to 1000 nM; in experiment [2] (setting [8]), ≤ 100 nM; in experiment [2] (setting [12]), 1000 to 5000 nM.

With `CC1(C)CC(=O)C2=C(C1)Nc1n[nH]cc1C21CCCNCC1` (centres unmarked) [Compound 889571], the IC50 in experiment [1] (setting [5]) and in experiment [2] (setting [6]) was > 5000 nM each time.

Take `C[C@@H]1C[C@@H]2C[C@]3(C[C@@H]2C1)C1=C(CC(C)(C)CC1=O)Nc1n[nH]cc13` [Compound 943898]: the IC50 in experiment [1] (setting [9]) and in experiment [2] (setting [10]) was ≤ 100 nM in each case.

Regarding `CC1(C)CC(=O)C2=C(C1)Nc1n[nH]cc1[C@]21COC2(CN(S(C)(=O)=O)C2)C1` [Compound 926823], the results for the IC50 in experiment [1] (setting [9]) and in experiment [2] (setting [10]) were 100 to 1000 nM and 1000 to 5000 nM, respectively.

`CC[C@@]1(c2cccc(C(F)(F)F)c2)C2=C(CCN(c3cn(C)c(C)n3)C2=O)Nc2n[nH]cc21` [Compound 952478]: the IC50 in experiment [1] (setting [5]) was 1000 to 5000 nM; in experiment [2] (setting [6]), > 5000 nM.

For `Cc1ccc(C(=O)N2CC3(C2)CC2(CO3)C3=C(CC(C)(C)CC3=O)Nc3n[nH]cc32)c(C)c1` (centres unmarked) [Compound 947294], the IC50 was ≤ 100 nM in experiment [1] (setting [9]) and 100 to 1000 nM in experiment [2] (setting [10]).

As for `CCC1(c2cccc(-c3ccnn3C)c2)C2=C(CC3(CCOC3)NC2=O)Nc2n[nH]cc21` (centres unmarked) [Compound 948016], the IC50 in experiment [1] (setting [3]) and in experiment [2] (setting [4]) was > 5000 nM each time.

In the case of `CC[C@]1(c2cccc(Br)c2)C2=C(CC(C)(C)[C@@H](F)C2=O)Nc2n[nH]cc21` [Compound 835313], the IC50 in experiment [1] (setting [3]) and in experiment [2] (setting [4]) was > 5000 nM throughout.

With `CC[C@]1(c2ccccc2)C2=C(Nc3n[nH]cc31)[C@@H]1CC[C@@H](C1)C2=O` [Compound 791266], the IC50 in experiment [1] (setting [7]) and in experiment [2] (setting [8]) was > 5000 nM each time.

With `CC[C@@]1(c2ccccc2)C2=C(Nc3n[nH]cc31)[C@H]1CC[C@H](C1)C2=O` [Compound 791270], the results for the IC50 in experiment [1] (setting [7]) and in experiment [2] (setting [8]) were 100 to 1000 nM and > 1700 nM, respectively.

For the origin of these results see US20250313563A1, “GLYCOGEN SYNTHASE KINASE 3 INHIBITORS AND USES THEREOF” (The Broad Institute, Inc., priority 2022, published 2025).
